Source: patent US20100022483A1, “Substituted Tetracycline Compounds” (Paratek Pharmaceuticals, Inc., priority 2008, published 2010)
≈ marks a conversion by molar mass, not a printed value. Where two headings read alike, the source gives them in different places.

How the values were obtained:
[1] = system: gram positive bacteria; assay: In vitro anti-bacterial activity assay (broth dilution MIC), gram positive bacteria; assay type: cell-based, S. aureus; settings: 18 h
In short: (§1)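 Broth dilution MIC following CLSI M7-A2: compounds serially diluted, log-phase test strains added to final ~5×10^5 CFU/ml, incubated ~18 hours at 35° C in ambient air. Plates read on microplate reader or visually; MIC is lowest concentration inhibiting growth.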

[2] = system: gram negative bacteria; assay: In vitro anti-bacterial activity assay (broth dilution MIC), gram negative bacteria; assay type: cell-based, E. coli
In short: as §1

[3] = Mammalian cytotoxicity assay (resazurin), COS-1 cells; assay type: cell-based; settings: African green monkey, read-out: Cytotox. COS-1
In short: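 Resazurin read-out (0.042 mg/ml, 2 h at 37° C. then 30 min dark, room temperature; fluorescence 535/590 nm) follows 24-hour compound exposure of overnight-seeded cells, serially diluted. IC50 is the concentration giving 50% growth inhibition.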

[4] = in vitro; assay type: cell-based; settings: Chinese hamster, Cytotox. CHO-K1
[5] = system: 3T3 fibroblast cells; assay: In vitro phototoxicity assay (neutral red; UV light-treated vs dark control plates); assay type: cell-based; settings: for Photo Toxicity UV Tox50: UV light 50 minutes; for Photo Toxicity Dark Tox50: dark control plate
In short: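 Neutral red viability readout (A535 after EtOH/acetic acid extraction) compares paired plates: one exposed 50 min to UV at 1.6–1.8 mW/cm^2, one held in darkness, both dosed with compound in HBSS and recovered overnight. 3T3 fibroblast cells used; phototoxicity taken as the difference.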

[6] = Staphylococcus aureus, S. aureus MRSA5, read-out: Median MIC's G+ S. aureus MRSA5
[7] = Staphylococcus aureus, S. aureus RN450, read-out: Median MIC's G+ S. aureus RN450
[8] = Streptococcus pneumoniae, S. pneumoniae 157E-Strep, read-out: Median MIC's G+ S. pneumoniae 157E-Strep
[9] = Escherichia coli, 18 h, E. coli D1 209, read-out: Median MIC's G− E. coli D1 209
[10] = Escherichia coli, 18 h, E. coli MG 1655, read-out: Median MIC's G− E. coli MG 1655
[11] = Escherichia coli, ATCC25922, 18 h, E. coli ATCC 25922, read-out: Median MIC's G− E. coli ATCC 25922
[12] = Pseudomonas aeruginosa, 18 h, P. aeruginosa K201 PAO6609, read-out: Median MIC's G− P. aeruginosa K201 PAO6609

Structure (SMILES) | MIC [1, 6] [µg/mL] | MIC [1, 7] [µg/mL] | MIC [1, 8] [µg/mL] | MIC [2, 9] [µg/mL] | MIC [2, 10] [µg/mL] | MIC [2, 11] [µg/mL] | MIC [2, 12] [µg/mL] | IC50 at 24 h [3] [µM] | IC50 at 24 h [4] [µM] | Photo Toxicity UV Tox50 [5] [µM] | Photo Toxicity Dark Tox50 [5] [µM]
C=CCNCC(=O)c1ccc(O)c2c1C[C@H]1C[C@H]3[C@H](N(C)C)C(O)=C(C(N)=O)C(=O)[C@@]3(O)C(O)=C1C2=O [BV] | 32 (≈ 62.6 µM) | 4 (≈ 7.82 µM) | 1 (≈ 1.95 µM) | 64 (≈ 125 µM) | 16 (≈ 31.3 µM) | 32 (≈ 62.6 µM) | 64 (≈ 125 µM) | > 122 | 27.6 | >121.69 | >121.69
COCC(=O)c1ccc(O)c2c1C[C@H]1C[C@H]3[C@H](N(C)C)C(O)=C(C(N)=O)C(=O)[C@@]3(O)C(O)=C1C2=O [BW] | 1 (≈ 2.06 µM) | 0.06 (≈ 0.123 µM) | 0.06 (≈ 0.123 µM) | 64 (≈ 132 µM) | 0.5 (≈ 1.03 µM) | 0.5 (≈ 1.03 µM) | 32 (≈ 65.8 µM) | > 53.4 | > 53.4 | >172.1 | >172.1
CC(C)N1CCN(CC(=O)c2ccc(O)c3c2C[C@H]2C[C@H]4[C@H](N(C)C)C(O)=C(C(N)=O)C(=O)[C@@]4(O)C(O)=C2C3=O)CC1 [BX] | 4 (≈ 6.87 µM) | 1 (≈ 1.72 µM) | 0.5 (≈ 0.858 µM) | 64 (≈ 110 µM) | 8 (≈ 13.7 µM) | 8 (≈ 13.7 µM) | 64 (≈ 110 µM) | > 130 | > 130 | >130.05 | >130.05
CN(C)[C@@H]1C(O)=C(C(N)=O)C(=O)[C@@]2(O)C(O)=C3C(=O)c4c(O)ccc(C(=O)CNCc5ccccn5)c4C[C@H]3C[C@@H]12 [BY] | 32 (≈ 56.9 µM) | 2 (≈ 3.56 µM) | 4 (≈ 7.11 µM) | 64 (≈ 114 µM) | 64 (≈ 114 µM) | 64 (≈ 114 µM) | 64 (≈ 114 µM) | > 13.4 | > 13.4 | >133.75 | >133.75
CN(C)[C@@H]1C(O)=C(C(N)=O)C(=O)[C@@]2(O)C(O)=C3C(=O)c4c(O)ccc(C(=O)CNCC(N)=O)c4C[C@H]3C[C@@H]12 [BZ] | 64 (≈ 121 µM) | 4 (≈ 7.57 µM) | 4 (≈ 7.57 µM) | 64 (≈ 121 µM) | 64 (≈ 121 µM) | 64 (≈ 121 µM) | 64 (≈ 121 µM) | > 119 | > 119 | >118.96 | >118.96
COC(C)CNCC(=O)c1ccc(O)c2c1C[C@H]1C[C@H]3[C@H](N(C)C)C(O)=C(C(N)=O)C(=O)[C@@]3(O)C(O)=C1C2=O (stereo partly drawn) [CA] | 32 (≈ 58.9 µM) | 4 (≈ 7.36 µM) | 2 (≈ 3.68 µM) | 64 (≈ 118 µM) | 32 (≈ 58.9 µM) | 32 (≈ 58.9 µM) | 64 (≈ 118 µM) | > 146 | > 146 | >145.98 | >145.98
CN(C)[C@@H]1C(O)=C(C(N)=O)C(=O)[C@@]2(O)C(O)=C3C(=O)c4c(O)ccc(C(=O)CNc5cccnc5)c4C[C@H]3C[C@@H]12 [CB] | 64 (≈ 117 µM) | 16 (≈ 29.2 µM) | 32 (≈ 58.3 µM) | 64 (≈ 117 µM) | 64 (≈ 117 µM) | 64 (≈ 117 µM) | 64 (≈ 117 µM) | > 153 | 110 | >152.86 | >152.86
CN(C)[C@@H]1C(O)=C(C(N)=O)C(=O)[C@@]2(O)C(O)=C3C(=O)c4c(O)ccc(C(=O)CNCc5ccco5)c4C[C@H]3C[C@@H]12 [CC] | 16 (≈ 29 µM) | 1 (≈ 1.81 µM) | 2 (≈ 3.63 µM) | 64 (≈ 116 µM) | 32 (≈ 58 µM) | 32 (≈ 58 µM) | 64 (≈ 116 µM) | > 44.7 | > 44.7 | >144.12 | >144.12
CN(C)c1cc(-c2cccc(C(N)=O)c2)c(O)c2c1C[C@H]1C[C@H]3[C@H](N(C)C)C(O)=C(C(N)=O)C(=O)[C@@]3(O)C(O)=C1C2=O [CD] | 32 (≈ 55.5 µM) | 8 (≈ 13.9 µM) | 16 (≈ 27.7 µM) | 64 (≈ 111 µM) | 64 (≈ 111 µM) | 64 (≈ 111 µM) | 64 (≈ 111 µM) | > 45.3 | > 45.3 | >146.26 | >146.26
CN(C)[C@@H]1C(O)=C(C(N)=O)C(=O)[C@@]2(O)C(O)=C3C(=O)c4c(O)ccc(C(=O)CNCc5cccn5C)c4C[C@H]3C[C@@H]12 [CE] | 4 (≈ 7.08 µM) | 0.25 (≈ 0.443 µM) | 0.5 (≈ 0.886 µM) | 64 (≈ 113 µM) | 4 (≈ 7.08 µM) | 4 (≈ 7.08 µM) | 64 (≈ 113 µM) | > 41.4 | > 41.4 | >133.53 | >133.53
CN(C)[C@@H]1C(O)=C(C(N)=O)C(=O)[C@@]2(O)C(O)=C3C(=O)c4c(O)ccc(C(=O)Cn5ccnc5)c4C[C@H]3C[C@@H]12 [CF] | 64 (≈ 122 µM) | 4 (≈ 7.66 µM) | 4 (≈ 7.66 µM) | 64 (≈ 122 µM) | 64 (≈ 122 µM) | 64 (≈ 122 µM) | 64 (≈ 122 µM) | > 49.9 | > 49.9 | >161.01 | >161.01
CC(=O)NCCC(=O)c1ccc(O)c2c1C[C@H]1C[C@H]3[C@H](N(C)C)C(O)=C(C(N)=O)C(=O)[C@@]3(O)C(O)=C1C2=O [CI] | 64 (≈ 121 µM) | 2 (≈ 3.79 µM) | 2 (≈ 3.79 µM) | 64 (≈ 121 µM) | 64 (≈ 121 µM) | 64 (≈ 121 µM) | 64 (≈ 121 µM) | > 160 | > 160 | >159.57 | >159.57
CN(C)CC/C(=N\OC(C)(C)C)c1ccc(O)c2c1C[C@H]1C[C@H]3[C@H](N(C)C)C(O)=C(C(N)=O)C(=O)[C@@]3(O)C(O)=C1C2=O [CJ] | 2 (≈ 3.42 µM) | 0.06 (≈ 0.103 µM) | 0.06 (≈ 0.103 µM) | 1 (≈ 1.71 µM) | 2 (≈ 3.42 µM) | 0.5 (≈ 0.855 µM) | 64 (≈ 109 µM) | 82.2 | 34.6 | 62.89 | >136.86
CN(C)[C@@H]1C(O)=C(C(N)=O)C(=O)[C@@]2(O)C(O)=C3C(=O)c4c(O)ccc(-c5cccc(C(=O)NCCO)c5)c4C[C@H]3C[C@@H]12 [CK] | 8 (≈ 13.9 µM) | 0.125 (≈ 0.216 µM) | 0.125 (≈ 0.216 µM) | 64 (≈ 111 µM) | 64 (≈ 111 µM) | 64 (≈ 111 µM) | 64 (≈ 111 µM) | > 14.7 | > 14.7 | >146.56 | >146.58
CN(C)CCCCNC(=O)c1cccc(-c2ccc(O)c3c2C[C@H]2C[C@H]4[C@H](N(C)C)C(O)=C(C(N)=O)C(=O)[C@@]4(O)C(O)=C2C3=O)c1 [CL] | 64 (≈ 101 µM) | 4 (≈ 6.32 µM) | 4 (≈ 6.32 µM) | 64 (≈ 101 µM) | 64 (≈ 101 µM) | 64 (≈ 101 µM) | 64 (≈ 101 µM) | > 41.7 | > 41.7 | >134.63 | >134.63
CN(C)[C@@H]1C(O)=C(C(N)=O)C(=O)[C@@]2(O)C(O)=C3C(=O)c4c(O)ccc(-c5cccc(CCCO)c5)c4C[C@H]3C[C@@H]12 [CM] | 0.5 (≈ 0.911 µM) | 0.0625 (≈ 0.114 µM) | 0.06 (≈ 0.109 µM) | 64 (≈ 117 µM) | 64 (≈ 117 µM) | 64 (≈ 117 µM) | 64 (≈ 117 µM) | 15.1 | 14.1 | >167.5 | >167.5
CN(C)CCCCNCc1ccc(O)c2c1C[C@H]1C[C@H]3[C@H](N(C)C)C(O)=C(C(N)=O)C(=O)[C@@]3(O)C(O)=C1C2=O [CN, (4S,4aS,5aR,12aS)-4-Dimethylamino-7-[(4-dimethylamino-butylamino)-methyl]-3,10,12,12a-tetrahydroxy-1,11-dioxo-1,4,4a,5,5a,6,11,12a-octahydro-naphthacene-2-carboxylic acid amide] | 64 (≈ 118 µM) | 16 (≈ 29.5 µM) | 32 (≈ 59 µM) | 64 (≈ 118 µM) | 32 (≈ 59 µM) | 32 (≈ 59 µM) | 64 (≈ 118 µM) | > 138 | > 138 | >138.03 | >138.03
CN(C)[C@@H]1C(O)=C(C(N)=O)C(=O)[C@@]2(O)C(O)=C3C(=O)c4c(O)ccc(-c5cccc(/C=C/C#N)c5)c4C[C@H]3C[C@@H]12 [CO] | 0.5 (≈ 0.923 µM) | 0.0625 (≈ 0.115 µM) | 0.06 (≈ 0.111 µM) | 64 (≈ 118 µM) | 64 (≈ 118 µM) | 64 (≈ 118 µM) | 64 (≈ 118 µM) | 7.77 | 9.41 | >164.35 | >164.35
